# In patent US9650339B2, “Inhibitors of histone demethylases” (Gilead Sciences, Inc., priority 2013, dated 2017):
# Experiments:
# Format in all cases: biochemical
# [1] = target: T1, KDM2B (FBXL10) (Homo sapiens, UniProt Q8NHM5); experiment: Histone lysine demethylase AlphaLISA assay, KDM2B; conditions: read-out: KDM2B HDME Inhibition IC50
# T1 sequence (Q8NHM5 1-650): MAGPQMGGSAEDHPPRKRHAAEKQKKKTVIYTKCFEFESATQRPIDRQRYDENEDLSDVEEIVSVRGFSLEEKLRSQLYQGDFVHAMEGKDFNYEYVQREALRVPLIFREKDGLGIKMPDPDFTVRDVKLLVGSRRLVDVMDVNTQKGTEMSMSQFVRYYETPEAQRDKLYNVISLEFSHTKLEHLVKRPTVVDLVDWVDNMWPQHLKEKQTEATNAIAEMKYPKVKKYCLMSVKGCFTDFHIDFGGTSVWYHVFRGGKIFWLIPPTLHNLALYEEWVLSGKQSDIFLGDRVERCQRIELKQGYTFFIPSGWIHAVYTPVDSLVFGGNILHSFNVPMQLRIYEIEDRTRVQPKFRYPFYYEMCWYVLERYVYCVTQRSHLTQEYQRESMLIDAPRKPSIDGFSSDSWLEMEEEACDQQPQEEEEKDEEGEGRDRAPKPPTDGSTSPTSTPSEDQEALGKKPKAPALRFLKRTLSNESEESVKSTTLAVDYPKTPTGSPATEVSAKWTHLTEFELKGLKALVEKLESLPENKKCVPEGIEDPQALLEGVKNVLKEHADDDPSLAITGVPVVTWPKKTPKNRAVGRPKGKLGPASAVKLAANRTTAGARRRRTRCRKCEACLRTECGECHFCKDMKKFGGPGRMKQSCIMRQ
# Method in brief: (§1)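 Steps: enzyme equilibrated 10 min in buffer; compounds in 3% DMSO solution added, 10 min; substrate mix added (peptide, 25 μM L-Asc, 10 μM α-KG), room temperature; acceptor beads, then streptavidin donor beads, dark incubations; plate read.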
# [2] = target: T2, KDM4B (JMJD2B) (Homo sapiens, UniProt O94953); experiment: Histone lysine demethylase AlphaLISA assay, KDM4B; conditions: read-out: KDM4B HDME Inhibition IC50
# T2 construct: 2-500; purchased BPS; host or cells: Bac (baculovirus system)
# T2 sequence (O94953 2-500): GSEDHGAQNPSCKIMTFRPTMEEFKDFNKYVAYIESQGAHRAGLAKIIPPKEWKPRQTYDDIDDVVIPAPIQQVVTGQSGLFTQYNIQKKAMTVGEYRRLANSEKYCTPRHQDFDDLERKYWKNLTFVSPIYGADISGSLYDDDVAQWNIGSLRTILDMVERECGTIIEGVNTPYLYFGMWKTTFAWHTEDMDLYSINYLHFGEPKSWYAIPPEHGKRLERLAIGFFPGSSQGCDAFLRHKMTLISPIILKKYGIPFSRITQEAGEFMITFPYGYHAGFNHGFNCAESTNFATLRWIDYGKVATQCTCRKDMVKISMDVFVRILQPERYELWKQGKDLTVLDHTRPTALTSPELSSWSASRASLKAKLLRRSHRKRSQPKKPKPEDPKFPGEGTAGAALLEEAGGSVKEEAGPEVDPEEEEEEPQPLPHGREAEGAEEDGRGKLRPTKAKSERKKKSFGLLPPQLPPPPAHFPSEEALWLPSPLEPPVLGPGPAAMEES
# Protocol: (§2) Assays are performed analogously to the protocol described by PerkinElmer (Roy et al. PerkinElmer Technical Note: AlphaLISA #12, April 2011)
# (§3) Enzymes are dissolved in enzyme buffer and incubated for 10 min before being added to 3% DMSO solutions of compounds in enzyme buffer. Incubated for another 10 minutes, before substrate solution is added and the reaction mixture is incubated at room temperature. 10 μL acceptor beads, suspended in Epigenetic Buffer (Perkin Elmer AL008) from stock, are added and the suspension is incubated in the dark at room temperature, before a suspension of streptavidin donor beads (Perkin Elmer 6760002) in Epigenetic Buffer is added. After incubation at room temperature in the dark the plates are read.
# BK9M3: Biotin-ARTKQTAR(KMe3)STGGKAPRKQ-NH2 (Caslo, Denmark) […]
# (§4) Substrate Solution: Substrate, 25 μM L-Asc, and 10 μM α-KG in Buffer A.
# [3] = target: T3, KDM5B (PLU-1) (Homo sapiens, UniProt Q9UGL1); experiment: Histone lysine demethylase AlphaLISA assay, KDM5B; conditions: read-out: KDM5B HDME Inhibition IC50
# T3 sequence (Q9UGL1 1-809): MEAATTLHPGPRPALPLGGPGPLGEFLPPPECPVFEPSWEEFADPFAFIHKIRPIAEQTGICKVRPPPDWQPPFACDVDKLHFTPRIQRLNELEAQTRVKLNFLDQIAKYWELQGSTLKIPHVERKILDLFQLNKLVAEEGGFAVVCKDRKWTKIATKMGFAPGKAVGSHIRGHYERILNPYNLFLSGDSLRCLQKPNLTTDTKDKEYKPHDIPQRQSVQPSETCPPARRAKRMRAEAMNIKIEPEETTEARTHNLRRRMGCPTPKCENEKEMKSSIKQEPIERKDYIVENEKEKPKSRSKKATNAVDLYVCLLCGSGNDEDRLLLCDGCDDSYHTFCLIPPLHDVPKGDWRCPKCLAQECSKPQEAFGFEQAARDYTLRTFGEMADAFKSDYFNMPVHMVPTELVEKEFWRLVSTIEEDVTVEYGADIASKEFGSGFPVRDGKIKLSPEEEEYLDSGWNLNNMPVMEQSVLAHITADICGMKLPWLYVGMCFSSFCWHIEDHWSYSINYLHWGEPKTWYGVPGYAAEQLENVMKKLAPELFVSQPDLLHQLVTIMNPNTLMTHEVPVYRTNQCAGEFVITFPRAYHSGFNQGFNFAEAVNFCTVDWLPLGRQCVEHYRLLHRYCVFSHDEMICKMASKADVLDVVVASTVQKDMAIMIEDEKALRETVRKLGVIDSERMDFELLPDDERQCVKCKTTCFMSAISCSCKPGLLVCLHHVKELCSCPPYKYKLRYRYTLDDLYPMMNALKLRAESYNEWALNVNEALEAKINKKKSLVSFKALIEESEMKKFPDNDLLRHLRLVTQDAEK
# Method in brief: as §1
# [4] = target: T4, KDM6B (JMJD3) (Homo sapiens, UniProt O15054); experiment: Histone lysine demethylase AlphaLISA assay, KDM6B; conditions: read-out: KDM6B HDME Inhibition IC50
# T4 construct: 1043-end; purchased BPS; host or cells: Bac (baculovirus system)
# Protocol: as §2
# as §3, with “read. […]” for “read.”
# BK27M3: Biotin-ATKAAR(Kme3)SAPATGGVKKPHRY-NH2? (Caslo, Denmark) […]
# as §4
# T4 sequence (O15054 1043-1682 isoform O15054-1 limits assumed): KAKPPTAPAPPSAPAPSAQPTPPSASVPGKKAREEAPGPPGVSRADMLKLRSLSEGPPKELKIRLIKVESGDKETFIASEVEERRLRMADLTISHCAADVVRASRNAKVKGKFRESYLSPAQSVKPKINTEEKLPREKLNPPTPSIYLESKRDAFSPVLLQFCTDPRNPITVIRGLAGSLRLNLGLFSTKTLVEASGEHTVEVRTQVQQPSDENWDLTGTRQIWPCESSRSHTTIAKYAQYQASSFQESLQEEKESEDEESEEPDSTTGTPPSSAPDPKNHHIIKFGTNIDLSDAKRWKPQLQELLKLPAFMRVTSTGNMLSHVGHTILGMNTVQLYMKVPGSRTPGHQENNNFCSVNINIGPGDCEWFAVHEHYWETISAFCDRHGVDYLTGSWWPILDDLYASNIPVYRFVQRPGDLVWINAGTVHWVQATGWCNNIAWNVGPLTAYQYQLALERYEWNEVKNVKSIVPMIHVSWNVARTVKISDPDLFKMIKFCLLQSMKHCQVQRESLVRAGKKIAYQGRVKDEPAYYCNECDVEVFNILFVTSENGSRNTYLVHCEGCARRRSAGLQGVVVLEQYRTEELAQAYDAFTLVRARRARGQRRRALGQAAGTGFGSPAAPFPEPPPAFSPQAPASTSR
SMILES,IC50 [1],IC50 [2],IC50 [3],IC50 [4]
"O=C(CNCc1cc(/C=N/C2CC2)ccn1)N1CCC[C@@H]1CN1CCCC1 [Compound 49, 2-[({4-[N-cyclopropyl-carboximidoyl]pyridin-2-yl}methyl)amino]-1-[(2R)-2-(pyrrolidin-1-ylmethyl)pyrrolidin-1-yl]ethan-1-one]",> 2.5 µM,< 0.25 µM,< 0.25 µM,> 2.5 µM
"CN(C)C(=O)CNCc1cc(CNCC#N)ccn1 [Compound 13, 2-{[(4-{[(cyanomethyl)amino]-methyl}pyridin-2-yl)methyl]amino}-N,N-dimethylacetamide]",> 2.5 µM,> 2.5 µM,0.25 to 2.5 µM,> 2.5 µM
"CCN1CCCC1CNC(=O)CNCc1cc(/C=N/C2CC2)ccn1 (stereo not drawn) [Compound 51, 2-[({4-[N-cyclopropyl-carboximidoyl]-pyridin-2-yl}methyl)-amino]-N-[(1-ethylpyrrolidin-2-yl)methyl]acetamide]",> 2.5 µM,< 0.25 µM,< 0.25 µM,> 2.5 µM
"CCN(CC)CCCCNC(=O)CNCc1cc(/C=N/C2CC2)ccn1 [Compound 48, 2-[({4-[N-cyclopropyl-carboximidoyl]pyridin-2-yl}methyl)amino]-N-[4-(diethylamino)-butyl]acetamide]",> 2.5 µM,< 0.25 µM,< 0.25 µM,> 2.5 µM
"CN(C)C(=O)CNCc1cc(/C=N/CCCc2ccccc2)ccn1 [Compound 34, N,N-dimethyl-2-[({4-[[(3-phenylpropyl)imino]-methyl]pyridin-2-yl}methyl)amino]-acetamide]",> 2.5 µM,> 2.5 µM,< 0.25 µM,> 2.5 µM
"CCN(CCN(C)C)C(=O)CNCc1cc(CNC(=O)C(F)(F)F)ccn1 [Compound 25, N-[(2-{[({[2-(dimethylamino)ethyl]-(ethyl)carbamoyl}-methyl)amino]methyl}-pyrtdin-4-yl)methyl]-2,2,2-trifluoroacetamide]",> 2.5 µM,> 2.5 µM,0.25 to 2.5 µM,> 2.5 µM
"CC1CC1/N=C/c1ccnc(CNCC(=O)N(C)C)c1 (stereo not drawn) [Compound 35, N,N-dimethyl-2-[({4-[N-(2-methylcyclopropyl)-carboximidoyl]pyridin-2-yl}methyl)amino]-acetamide]",0.25 to 2.5 µM,< 0.25 µM,0.25 to 2.5 µM,> 2.5 µM
"CCN1CCCC1CNC(=O)CNCc1cc(C=O)ccn1 (stereo not drawn) [Compound 104, N-[(1-ethylpyrrolidin-2-yl)methyl]-2-{[(4-formylpyridin-2-yl)methyl]amino}-acetamide]",> 2.5 µM,< 0.25 µM,< 0.25 µM,> 2.5 µM
"CN(C)CCCCNCc1cc(/C=N\C2CC2)ccn1 [Compound 45, N-{[2-({[4-(dimethylamino)butyl]-amino}methyl)-pyridin-4-yl]methylidene}-cyclopropanamine]",> 2.5 µM,0.25 to 2.5 µM,0.25 to 2.5 µM,> 2.5 µM
"CN(C)CC1CCC(CNCc2cc(/C=N/C3CC3)ccn2)CC1 (stereo not drawn) [Compound 46, N-[(2-{[({4-[(dimethylamino)-methyl]cyclohexyl}-methyl)amino]-methyl}pyridin-4-yl)methylidene]-cyclopropanamine]",> 2.5 µM,0.25 to 2.5 µM,0.25 to 2.5 µM,> 2.5 µM

# Second part, the molecule after the results:
IC50 [1],IC50 [2],IC50 [3],IC50 [4],SMILES
> 2.5 µM,< 0.25 µM,< 0.25 µM,> 2.5 µM,"CCN(CC)CCCCNCc1cc(C=O)ccn1 [Compound 107, 2-({[4-(diethylamino)-butyl]amino}-methyl)pyridine-4-carbaldehyde]"
> 2.5 µM,0.25 to 2.5 µM,< 0.25 µM,> 2.5 µM,"CN(C)CCCCCNCc1cc(C=O)ccn1 [Compound 114, 2-({[5-(dimethylamino)-pentyl]amino}methyl)-pyridine-4-carbaldehyde]"
> 2.5 µM,< 0.25 µM,0.25 to 2.5 µM,> 2.5 µM,"CCN(CC)C(=O)CNCc1cc(C=O)ccn1 [Compound 105, N,N-diethyl-2-{[(4-formylpyridin-2-yl)methyl]amino}-acetamide]"
0.25 to 2.5 µM,0.25 to 2.5 µM,< 0.25 µM,> 2.5 µM,"CCN(CCN(C)C)C(=O)CNCc1cc(/C=N/CCC2CCCCC2)ccn1 [Compound 63, 2-[({4-[[(2-cydohexylethyl)-imino]methyl]pyridin-2-yl}methyl)amino]-N-[2-(dimethylamino)-ethyl]-N-ethylacetamide]"
> 2.5 µM,< 0.25 µM,< 0.25 µM,> 2.5 µM,"CNC(C#N)c1ccnc(CNCCCN(C)C)c1 (stereo not drawn) [Compound 24, 2-[2-({[3-(dimethylamino)propyl]-amino}methyl)pyridin-4-yl]-2-(methylamino)-acetonitrile]"
> 2.5 µM,0.25 to 2.5 µM,0.25 to 2.5 µM,> 2.5 µM,"CC(C#N)NCc1ccnc(CNCCCN(C)C)c1 (stereo not drawn) [Compound 22, 2-({[2-({[3-(dimethylamino)propyl]-amino}methyl)pyridin-4-yl]methyl}amino)-propanenitrile]"
> 2.5 µM,> 2.5 µM,> 2.5 µM,> 2.5 µM,"CCN(CC)CCCCNCc1cc(CN)ccn1 [Compound 5, [2-({[4-(diethylamino)butyl]-amino}methyl)pyridin-4-yl]methanamine]"
> 2.5 µM,< 0.25 µM,< 0.25 µM,> 2.5 µM,"CCN(CC)CCCCNCc1cc(/C=N/CCO)ccn1 [Compound 61, 2-[{[2-({[4-(diethylamino)-butyl]amino}-methyl)pyridin-4-yl]methylidene}-amino]ethan-1-ol]"
